Source: PMC7927014, “Novel Small Molecule Hsp90/Cdc37 Interface Inhibitors Indirectly Target K-Ras-Signaling” (Cancers, 2021)

What was measured:
Hsp90/Cdc37 = molecular target: T1, Hsp90/Cdc37 (Homo sapiens, UniProt P07900); experiment: Hsp90/Cdc37 split Renilla luciferase assay, full length Hsp90 (cell lysate; IC50 and 20 μM validation); assay type: biochemical; conditions: for normalized RLU / Average RLU: MolPort Screening-3, tested concentration of drugs 20 μM; for normalized RLU: RLU normalized to DMSO (=1.00); for Average RLU: average of 3 wells (DMSO 248028); for IC50: full length Hsp90, split Renilla luciferase assay, cell lysate
T1 construct: The Hsp90/Cdc37 split Renilla luciferase assay using the full length Hsp90 for the compound screening was described previously; expressed in transfected cells; host or cells: HEK293 EBNA cells, cleared lysates
Experimental: In the second in silico screening of the FIMM database, we employed the four identified chemical scaffolds (Figure S2B) for the visual inspection of the FIMM compound library. […] All of the purchased compounds were validated in vitro at 20 μM using the split Renilla luciferase assay.
(§1) The Hsp90/Cdc37 split Renilla luciferase assay using the full length Hsp90 for the compound screening was described previously. […] After 48 h, the cells were trypsinized and washed with PBS. The harvested cells were lysed in 1 mL of the 1x lysis buffer provided in the Renilla Luciferase Reporter Assay System Kit from Promega (cat. E2820), and were incubated on ice for 10 min. The cell lysates were then cleared by centrifugation at 13,000× g for 1 min. […] After this, the screening/test compounds or DMSO—as indicated—were added to each well. In total, 5 µL NRL-Hsp90- or NRL-N-Hsp90-lysate was added to each well, one row at a time. Subsequently, the plate was incubated for 5 min at room temperature (RT). […] Just before the reading, 20 µL assay buffer containing 2× Renilla luciferase substrate (coelenterazine) was added. For the FIMM screening, sample wells were read on a PHERAstar plate reader (BMG LABTECH) at a gain level of 4000, after 10 s shaking, using a hypomorph of NRL-Hsp90. For the subsequent validations of the compounds, sample wells with the above-described assay constructs were read using a synergy H1 Hybrid Multi-Mode reader (BioTek) in the luminescence detection mode, as described previously in detail.

K-RasG12V nanoclustering = experiment: K-RasG12V nanoclustering-FRET (FLIM-FRET) in HEK cells; assay type: cell-based; conditions: 24 h, conglobatin A 2 μM, salinomycin 1.3 μM, 17-AAG 2 μM, CAY10585 10 μM, hit compounds indicated concentrations
Experimental: In total, 80,000 HEK cells were seeded in 12-well plates containing sterilized 16-mm coverslips and 1 mL medium. The next day, the cells were transfected using jetPRIME or FuGENE HD transfection reagent. For the donor fluorophore-only samples, the cells were transfected with 500 ng mGFP-tagged RasG12V plasmid. For the nanoclustering-FRET pair samples, the cells were transfected with both the donor and acceptor constructs, i.e., pmGFP- and pmCherry- RasG12V at a plasmid ratio of 1:3, respectively, and a total of 800 ng plasmids. The next day, the cells were treated with either 0.1% DMSO vehicle control or the indicated concentrations of compounds diluted in DMEM or RPMI medium for 24 h. For the gene silencing studies, the cells were transfected with the indicated amounts of siRNAs, together with the FRET pair constructs. The plasmids and siRNA were diluted in the same jetPRIME transfection buffer, followed by the addition of jetPRIME. […] The lifetime of the mGFP donor fluorophore was measured using a fluorescence microscope (Zeiss AXIO Observer D1) equipped with a fluorescence lifetime imaging attachment (Lambert Instruments), as described previously in detail. The apparent FRET efficiency (Eapp) was calculated as Eapp = (1 − τDA/τD) × 100%, with the measured fluorescence lifetimes τDA of the FRET sample and the τD of the donor-only sample.

N-Hsp90/Cdc37 = molecular target: T2, N-Hsp90/Cdc37 (Homo sapiens, UniProt P07900); experiment: N-Hsp90/Cdc37 split Renilla luciferase assay (N-terminal Hsp90 fragment, residues 1-223); assay type: biochemical; conditions: cell lysate
T2 construct: only the N-terminal ATP-ase domain of Hsp90 (N-Hsp90, residues 1-223); expressed in transfected cells; host or cells: HEK293 EBNA cells, cleared lysates
Experimental: as §1

[1] = tested on: Hsp90 clients (C-Raf, Akt, ERK); experiment: Western blotting of Hsp90 client proteins; assay type: cell-based; conditions: Western blot, 24 h; SK-BR-3, MDA-MB-231, MIA PaCa-2, HCC-44 (conglobatin A: MDA-MB-231)
Experimental: The cells were trypsinized, washed with PBS, and lysed in RIPA buffer (cat no. 89900, ThermoFisher Scientific) containing protease and phosphatase inhibitors (cat. no. A32959, ThermoFisher Scientific) and 1 mM phenylmethylsulfonyl fluoride (PMSF). The cells in the RIPA buffer were placed on ice for 20 min, and were then sonicated in ice cold water for 5 min. The lysates were centrifuged at 4 °C, and their protein was quantified using a BCA kit (cat. no. 23225, ThermoFisher Scientific). Equal amounts of protein were separated by 10% SDS-PAGE, and were then transferred onto a nitrocellulose membrane (cat. no. NBA 083C001EA, Protran) using a wet transfer system (Bio-Rad) or semidry Transferblot Turbo Transfer System (Bio-Rad). After the transfer, the membranes were blocked for 30 min in 5% skimmed milk dissolved in 1× TBST, and then incubated with 1:2000 primary antibodies in 5% BSA in TBST at 4 °C overnight.
The primary antibodies against HER-2 (cat no. MA5-140579) and Hsp70 (cat. no. MA3-006) were purchased from ThermoFisher Scientific; C-Raf (cat. no. sc-133); the galectin-3 (cat. no. sc-20157), Hsp90 (cat. no. sc-69703), Cdc37 (cat. no. sc-13129) were obtained from Santa Cruz Biotechnology; the Akt (cat. no. 9272S), ERK1/2 (cat. no. 9102S), and pERK1/2 (cat. no. 9101S) were obtained from Cell Signaling Technology; the HIF-1α (cat. no. NB-100-134) was obtained from Novus Biologicals; and the β-actin (cat. no. A1978) was obtained from Sigma-Aldrich.
The next day, the membranes were washed three times in TBST for 10 min, and then incubated with secondary antibodies (1:5000) diluted in 5% skimmed milk in TBST for 1 h at RT. As secondary antibodies, we employed HRP-conjugated anti-mouse (cat. no. sc-2954, Santa Cruz Biotechnology) and anti-rabbit antibodies (cat. no. HAF008, R&D System). The protein bands were detected with a ChemiDoc MP instrument (Bio-Rad) after treatment with an ECL reagent (cat. no. 170-5061, BioRad). All of the antigens and molecular weights in kDa are labelled next to the blots on the figures. Uncropped Western blot data are attached as Figure S6.

MDA-MB-231 cells = experiment: 2D cell proliferation (alamarBlue); assay type: cell-based; conditions: Homo sapiens, MDA-MB-231, 72 h
Experimental: Per well, 500–700 cells were seeded in 96-well flat bottom culture plates in 100 µL. After 24 h, the cells were treated with 0.1% DMSO vehicle control or test compounds diluted in a medium using a 1:2 dilution-series, starting at 100 µM. The plates were further incubated for 72 h. The cell viability was measured after the addition of 10% alamarBlue reagent per well (cat. no. DAL1100, Thermo Fisher Scientific). The fluorescence intensity (excitation 560 nm and emission 590 nm) was measured after 4 h by the use of a H1 Hybrid Multi-Mode reader.

| Compound | normalized RLU (Hsp90/Cdc37) | Average RLU (Hsp90/Cdc37) [RLU] | IC50 (Hsp90/Cdc37) [µM] | K-RasG12V nanoclustering-FRET (K-RasG12V nanoclustering) | IC50 (N-Hsp90/Cdc37) [µM] | expression of Hsp90 clients (C-Raf, Akt, ERK; pERK) [1] | IC50 (MDA-MB-231 cells) [µM] |
| --- | --- | --- | --- | --- | --- | --- | --- |
| C/C1=C\[C@H](C)C[C@H](C)[C@H](Cc2cnco2)OC(=O)/C(C)=C/[C@H](C)C[C@H](C)[C@H](Cc2cnco2)OC1=O [conglobatin A, reference compound] | 0.40 | 98821 | 23 ± 6 | selective inhibition of K-RasG12V- | 4.5 ± 0.8 | decreased pERK and Akt levels | 32 ± 2 |
| CCOc1ccc(C(=O)c2ccc(O)c(O)c2O)cc1 [×1540, 2,3,4-TRIHYDROXY-4'-ETHOXYBENZOPHENONE] |  |  | 44 ± 18 | displayed K-Ras-selectivity | 44 ± 9 | dose-dependently decreased | 29 ± 3 |
| N=C(CSS(=O)(=O)O)NCC12CC3CC(CC(C3)C1)C2 [×6506, [({N-[(adamantan-1-yl)methyl]carbamimidoyl}methyl)sulfanyl]sulfonic acid] | 0.11 | 26657 | 5 ± 1 | displayed K-Ras-selectivity | 4.1 ± 0.4 | dose-dependently decreased | 32.6 ± 0.5 |
